Laboratory results taken from article PMC12457078, “Inhibition of soluble epoxide hydrolase in endotoxin induced pig lung injury” (Frontiers in Pharmacology, 2025).
Values joined by “and” are separate entries in the source; they are usually repeats but may differ in a detail not shown here. Equal entries are not always repeated. “Also recorded” adds a separate entry of the source. Where two headings read alike, the source gives them in different places.

Columns and labels:
[1] = liver microsomal assay (metabolic stability); type: in vitro ADME, pig
Protocol: To further characterize the inhibitors with regard to suitability for administration in pigs, a microsomal assay was used to determine metabolic stability ([Ackley et al., 2004]) for a subset of eight inhibitors chosen for their potency and availability. Microsomal preparations from pig liver were purchased from XenoTech (Kansas City, KS, US). Microsomes, buffer and NADPH generating system were combined, and then the inhibitor was added. The reaction was stopped after 35 min with ice cold acetonitrile containing internal standard (12-[[(cyclohexylamino)carbonyl]amino]-dodecanoic acid). The amount left of parent inhibitor was determined with LC-MS/MS.

[2] = pharmacokinetic pilot, continuous infusion in one animal; type: in vivo, pig
Protocol: (§1) One animal served as a pharmacokinetic pilot, with arterial and venous catheters placed in a cut-down in the neck. The remaining 21 animals were used for the randomized study (Figure 1). After intubation and start of mechanical ventilation, a second auricular vein cannula was placed and infusion of either AEPU or placebo according to randomization was started. After 2 h of infusion of AEPU or placebo, an infusion of LPS was started. A bolus of 0.1 mg/kg was administered during 30 min after which the infusion rate was adjusted to 0.01 mg/kg/h. During the time between start of AEPU or placebo and LPS infusion, neck dissection was performed, exposing the v jugularis externa and carotid artery. A pulmonary artery introducer and an arterial cannula were placed in vein and artery respectively, and a pulmonary artery catheter introduced through the introducer and the tip placed in the correct position in the pulmonary artery placement guided by continuous invasive pressure monitoring or, when difficult, assisted by fluoroscopy. All surgical procedures were performed under sterile conditions.
(§2) AEPU was synthesized according to Kim et al. ([Kim et al., 2007]), delivered in 60 mg vials and dissolved in 30 mL pure ethanol as a co-solvent, of which either 20 mL was added to 980 mL of sodium chloride 9 mg/mL or 8 mL–392 mL sodium chloride, creating a solution of 0.04 mg/mL AEPU and 2% ethanol. The placebo infusion was prepared by adding either 20 mL of pure ethanol to 980 mL of sodium chloride 9 mg/mL or 8 mL of pure ethanol to 392 mL sodium chloride, creating a 2% ethanol solution. Each animal received an infusion of either 0.1 mg/kg/h AEPU or the corresponding volume of placebo solution.
Infusion of AEPU at 0.1 mg/kg/h produced a progressive rise in blood concentration reaching steady state of approximately 200 nM at 120 min, maintained with only minor variations until the termination of infusion at 255 min. The elimination of AEPU after termination of infusion was rapid, showing complete elimination within 15 min (Figure 2).

[3] = AEPU blood concentrations in LPS-treated pigs; type: in vivo, pig; details: for AEPU conc, In 10uL blood / AEPU conc, In analyte: listed as AEPU
Protocol: as §1, §2
All animals were monitored with pulse oximetry, heart rate, ECG, systemic arterial blood pressure (ABP), pulmonary arterial pressure (PAP), central venous pressure (CVP) temperature, tidal volumes, respiratory rate and end tidal carbon dioxide. At baseline, and at 3 h, 6 h and at the end of the experiment, pulmonary capillary wedge pressure (PCWP) was measured together with arterial and venous blood gas analyses, as well as cardiac output calculations. Routine chemistry, including creatinine, bilirubin, glucose, electrolytes were collected at baseline and at the end of the experiment (Vetscan VS2®, Abaxis, Griesheim, Germany). Blood samples for measurement of AEPU plasma concentrations, as well as oxylipins (i.e., EpETrEs and their DiHETrE corresponding diols as well as related compounds with other polyunsaturated fatty acid precursors), were collected at baseline, 6 h and at the end of the experiment. Oxylipin analysis was performed according to a previously published protocol ([Gouveia-Figueira and Nording, 2015]).

lung injury = experiment: histological evaluation of lung biopsies (four graded scale 0-3); type: in vivo, pig
Excerpt: After euthanasia, the chest was opened and two approximately 2 × 1 × 1 cm pieces of lung tissue was cut from the left lung 3 cm from the hilus. One piece was immediately put in formaldehyde solution for later routine preparation for histological evaluation in hematoxylin and eosin staining. A pathologist, blinded for treatment group, evaluated the severity of lung injury in specimens on a four graded scale: 0 = no lung injury, 1 = mild lung injury, 2 = moderate lung injury and 3 = severe lung injury.

CCOCCOCCOCCCCCNC(=O)NC12CC3CC(CC(C3)C1)C2 [Compound 950]
metabolic stability [1]: low
time to complete elimination after termination of infusion ([2]; infusion 0.1 mg/kg/h): ≤ 15 min
concentration at 0 min ([2]; pig, whole blood, intravenous, 0.1 mg/kg/h, time 0 minutes, read-out: Conc in blood 950): 11 ng/mL
concentration at 5 min ([2]; pig, whole blood, intravenous, 0.1 mg/kg/h, time 5 minutes, read-out: Conc in blood 950): 45 ng/mL
concentration at 35 min ([2]; pig, whole blood, intravenous, 0.1 mg/kg/h, time 35 minutes, read-out: Conc in blood 950): 116 ng/mL
concentration at 65 min ([2]; pig, whole blood, intravenous, 0.1 mg/kg/h, time 65 minutes, read-out: Conc in blood 950): 174 ng/mL
concentration at 121 min ([2]; pig, whole blood, intravenous, 0.1 mg/kg/h, time 121 minutes, read-out: Conc in blood 950): 199 ng/mL
concentration at 185 min ([2]; pig, whole blood, intravenous, 0.1 mg/kg/h, time 185 minutes, read-out: Conc in blood 950): 202 ng/mL
concentration at 255 min ([2]; pig, whole blood, intravenous, 0.1 mg/kg/h, time 255 minutes, read-out: Conc in blood 950): 224 ng/mL
concentration at 270 min ([2]; pig, whole blood, intravenous, 0.1 mg/kg/h, time 270 minutes, read-out: Conc in blood 950): 0.189 ng/mL
concentration at 285 min ([2]; pig, whole blood, intravenous, 0.1 mg/kg/h, time 285 minutes, read-out: Conc in blood 950): 0.189 ng/mL
concentration at 300 min ([2]; pig, whole blood, intravenous, 0.1 mg/kg/h, time 300 minutes, read-out: Conc in blood 950): 0.189 ng/mL
concentration at 330 min ([2]; pig, whole blood, intravenous, 0.1 mg/kg/h, time 330 minutes, read-out: Conc in blood 950): 0.189 ng/mL
concentration at 120 min ([2]; pig, whole blood, intravenous, infusion 0.1 mg/kg/h, reached at 120 min, read-out: steady state blood concentration): ~200 nM
950 in blood spots ([3]; 6 h, individual pigs): 61 nM and 53 nM and 118 nM and 49 nM and 77 nM and 123 nM and 162 nM and 99 nM and 66 nM
950 in blood spots ([3]; 9 h, individual pigs): 163 nM and 42 nM and 48 nM and 79 nM and 172 nM and 149 nM
concentration at 9 h ([3]; LPS start, average of pigs, read-out: 950 in blood spots, Average): 62 nM
950 in blood spots ([3]; LPS start, individual pigs): 51 nM and 47 nM and 84 nM and 48 nM and 63 nM and 96 nM and 53 nM and 65 nM and 50 nM
concentration at 6 h ([3]; pig, whole blood (blood spots), intravenous, 0.1 mg/kg/h, 6 h, average of pigs, read-out: 950 in blood spots, Average): 90 nM
concentration at 9 h ([3]; pig, whole blood (blood spots), intravenous, 0.1 mg/kg/h, 9 h, average of pigs, read-out: 950 in blood spots, Average): 109 nM
AEPU conc, In 10uL blood ([3]; sample _6, individual pigs): 64.4 ng/mL and 39.4 ng/mL and 26.3 ng/mL and 24.4 ng/mL and 20.9 ng/mL and 46.8 ng/mL and 19.5 ng/mL and 30.4 ng/mL and 48.8 ng/mL
AEPU conc, In analyte ([3]; sample _6, individual pigs): 12.9 ng/mL and 7.9 ng/mL and 5.3 ng/mL and 4.9 ng/mL and 4.2 ng/mL and 9.4 ng/mL and 3.9 ng/mL and 6.1 ng/mL and 9.8 ng/mL
AEPU conc, In 10uL blood ([3]; sample _12, individual pigs): 68.1 ng/mL and 58.9 ng/mL and 0.0 ng/mL and 64.5 ng/mL and 16.7 ng/mL and 19.0 ng/mL and 31.2 ng/mL
AEPU conc, In analyte ([3]; sample _12, individual pigs): 13.6 ng/mL and 11.8 ng/mL and 12.9 ng/mL and 3.3 ng/mL and 3.8 ng/mL and 6.2 ng/mL
AEPU conc, In 10uL blood ([3]; sample _BL, individual pigs): 21.0 ng/mL and 25.7 ng/mL and 19.7 ng/mL and 20.3 ng/mL and 18.6 ng/mL and 33.4 ng/mL and 19.2 ng/mL and 25.1 ng/mL and 38.0 ng/mL
AEPU conc, In analyte ([3]; sample _BL, individual pigs): 4.2 ng/mL and 5.1 ng/mL and 3.9 ng/mL and 4.1 ng/mL and 3.7 ng/mL and 6.7 ng/mL and 3.8 ng/mL and 5.0 ng/mL and 7.6 ng/mL
lungskada (lung injury; histology score, per case, listed as sEH-i 950): 3 and 2
Lung injury (lung injury; histology, grade in words, per case, listed as sEH-i 950): Severe; also recorded: Moderate
Histological injury score (lung injury; scale 0-3, AEPU group): 2.7 (2–3)
